The experiment deals with T1, ADP sensor (mTFP1-ParM-mVenus cp157 terminal fusion; ADPrime sensor, soluble form) (Escherichia coli, UniProt P11904, C287A/K33A/T174A/T175N).
T1 construct: ParM flanked by FRET reporters: wild-type mTFP1 via SGITS linker at N-terminus, mVenus-cp157 via AAA linker at C-terminus; expressed in E. coli DH5alpha
T1 sequence (P11904 1-320 K33A/T174A/T175N/C287A): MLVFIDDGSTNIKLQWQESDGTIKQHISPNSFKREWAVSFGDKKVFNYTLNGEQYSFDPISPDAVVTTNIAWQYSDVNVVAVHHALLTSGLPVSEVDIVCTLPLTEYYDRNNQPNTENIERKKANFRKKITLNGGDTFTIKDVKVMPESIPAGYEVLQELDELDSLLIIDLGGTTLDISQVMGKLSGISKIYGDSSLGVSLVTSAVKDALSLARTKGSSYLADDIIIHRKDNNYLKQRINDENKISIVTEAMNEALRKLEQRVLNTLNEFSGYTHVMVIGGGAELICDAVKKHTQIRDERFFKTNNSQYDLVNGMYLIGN
Description: FRET ratio (mTFP1/mVenus) dose response, Hill fit. In kind it is binding. To be noted: read-out: apparent Kd.

Take `Nc1ncnc2c1ncn2[C@@H]1O[C@H](COP(=O)(O)OP(=O)(O)O)[C@@H](O)[C@H]1O` [ADP]: the Kd came to 0.16 ± 0.06 µM.
As for `Nc1ncnc2c1ncn2[C@@H]1O[C@H](COP(=O)(O)OP(=O)(O)OP(=O)(O)O)[C@@H](O)[C@H]1O` [ATP], the Kd was determined as 9.9 ± 6.3 µM.

Source of the values: PMC6695626, “Detection of Osmotic Shock-Induced Extracellular Nucleotide Release with a Genetically Encoded Fluorescent Sensor of ADP and ATP” (Sensors (Basel, Switzerland), 2019).
